Results from US20140072557A1, “MEDICINAL AGENT FOR SUPPRESSING MALIGNANT TUMOR METASTASIS” (priority 2011, published 2014).
Bridges are numbered along the chain shown (N, C = ends). Where no end group is shown, it is not given here.

Tests used:
A549 cells [1] = assay: EMT induced by TGF-β1 in A549 cells (morphology, quantitative RT-PCR); type: cell-based; conditions: final concentration 1 μM, A549 cells
Experimental: Using a 6-well dish, the A549 cells were cultured at 1×10^5 cells/well, and the culture medium was replaced with DMEM culture medium free from FBS the next day. After 24 hours of culture, the cells were used in the following experiment.
An ANP group (ANP solution was added (final concentration: 1 μM)) and a control group (the same amount of physiological saline was added) were prepared, and after 2 hours from the addition, TGF-β1 was added so that the final concentration would be 0.125, 0.25, 0.5, 1.0, and 2.0 ng/mL. After 24 hours had passed, the morphological change in the cells was observed under a microscope and photographed (FIG. 3).
Then, total RNA was collected using TRIZOL total RNA isolation reagent (made by Invitrogen), cDNA was synthesized using reverse transcriptase, and the mRNA levels of E-cadherin, N-cadherin, VEGF-A, PDGF-B, TNF-α, and IL-6 were measured by quantitative RT-PCR. It is known that in EMT, the expression of E-cadherin decreases while the expression of N-cadherin increases. The expression ratio of N-cadherin/E-cadherin is considered to be useful as an indicator of the degree of EMT.

[2] = target: T1, natriuretic peptide receptor GC-B (Homo sapiens, UniProt P20594); conditions: Furuya et al. 1992; cited from earlier work
T1 sequence (P20594 23-1047): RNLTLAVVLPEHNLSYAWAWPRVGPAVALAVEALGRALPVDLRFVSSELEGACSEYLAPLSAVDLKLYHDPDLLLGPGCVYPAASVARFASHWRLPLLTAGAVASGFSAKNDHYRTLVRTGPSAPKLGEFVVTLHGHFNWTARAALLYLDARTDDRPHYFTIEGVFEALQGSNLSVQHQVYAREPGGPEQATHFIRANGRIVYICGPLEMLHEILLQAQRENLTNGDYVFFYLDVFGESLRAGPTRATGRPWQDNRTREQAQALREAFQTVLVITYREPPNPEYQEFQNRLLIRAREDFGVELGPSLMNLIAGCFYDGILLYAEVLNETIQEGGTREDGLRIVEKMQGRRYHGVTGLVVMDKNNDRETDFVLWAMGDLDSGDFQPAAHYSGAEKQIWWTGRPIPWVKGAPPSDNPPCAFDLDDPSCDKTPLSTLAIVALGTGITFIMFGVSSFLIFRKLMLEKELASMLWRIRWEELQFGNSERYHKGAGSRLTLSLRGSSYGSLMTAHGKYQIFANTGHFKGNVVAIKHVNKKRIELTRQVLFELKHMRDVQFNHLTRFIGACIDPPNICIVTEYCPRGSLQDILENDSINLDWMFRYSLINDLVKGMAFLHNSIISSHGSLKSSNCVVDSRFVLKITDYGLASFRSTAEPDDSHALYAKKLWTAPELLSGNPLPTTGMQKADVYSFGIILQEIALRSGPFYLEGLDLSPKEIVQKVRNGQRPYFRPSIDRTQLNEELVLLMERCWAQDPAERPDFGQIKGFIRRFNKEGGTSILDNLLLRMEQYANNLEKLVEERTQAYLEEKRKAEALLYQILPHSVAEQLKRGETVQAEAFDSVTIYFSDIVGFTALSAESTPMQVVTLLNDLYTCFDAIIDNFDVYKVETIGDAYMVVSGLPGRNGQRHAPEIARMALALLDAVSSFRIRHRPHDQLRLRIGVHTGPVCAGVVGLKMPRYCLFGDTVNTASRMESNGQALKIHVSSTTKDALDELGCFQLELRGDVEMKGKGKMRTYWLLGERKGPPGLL

A549 cells [3] = assay: Intracellular cGMP level in A549 cells on natriuretic peptide stimulus; type: cell-based; conditions: 1×10^−11 M to 1×10^−6 M, 10 minutes
Experimental: The A549 cells were cultured in a 24-well dish at 4×10^4 cells/well, and the culture medium was replaced with DMEM culture medium free from FCS the next day. To the culture medium, solutions of hANP, hBNP, and hCNP (final concentration: ten-fold serial dilution from 1×10^−11 M to 1×10^−6 M, the same amount of physiological saline was used as a control) were separately added. After 10 minutes passed, 400 μL of cooled 70% ethanol (containing 0.1 N hydrochloric acid) was added, and ultrasonication was performed for a short time. The treated solution was lyophilized, and the cGMP level was measured using Cyclic GMP Assay kit (made by Yamasa Corp.).

mouse melanoma B16-F10 = assay: Mouse tail vein injection metastasis test, mouse melanoma B16-F10; type: in vivo, mice; conditions: 2.5 μg/kg/min by subcutaneous osmotic pump, 2 weeks
Experimental: 6-week-old male […] mice were used (purchased from Japan SLC, Inc.). Mouse melanoma B16-F10 was purchased from ATCC, and cultured in DMEM (Life Technologies Corp.) containing 10% FCS under 5% CO2 at 37° C. The cells in a subconfluent state were treated with EDTA-trypsin, centrifuged, and then suspended in serum free DMEM so as to be 5×10^6 cells/mL. The melanoma cell suspension (100 μL/mouse, 5×10^5 cells) was injected to the tail vein of the mice. The osmotic pumps used were MODEL2002 (for 14-day administration) made by ALZET (Cupertino, Calif,.).
Mice into which an osmotic pump containing 0.9% physiological saline was subcutaneously implanted in the back were assigned to the control group. Similarly, an osmotic pump containing hANP prepared for administration at 0.5 μg/kg/min was subcutaneously implanted into each mouse in the ANP group, an osmotic pump containing mouse BNP prepared for administration at 0.5 μg/kg/min was subcutaneously implanted into each mouse in the BNP group, and an osmotic pump containing hCNP-22 prepared for administration at 2.5 μg/kg/min was subcutaneously implanted into each mouse in the CNP group. To the mice in the sildenafil group, sildenafil citrate at a dosage of 20 mg/kg was intraperitoneally administered once daily. […]

## LKL-ANP: a mutant in which the amino acids at positions 10 to 12 of hANP are replaced with LKL (SLRRSSCFGLKLDRIGAQSGLGCNSFRY; ends and bridges not checked; cysteine pairing not given here; UniProt P01160 124-151, looked up, variant G10L R11K M12L)
A549 cells [1]
  ratio of suppression of EMT induced by TGF-β in terms of E-cad/Ncad: 52.9%

## hCNP6-22: peptide consisting of amino acids from position 6 to position 22 of SEQ ID NO: 7 (ring structure only) (CFGLKLDRIGSMSGLGC; disulfide 1-17 (inferred); listed as Homo sapiens)
[2]
  GC-B agonist activity compared with hCNP-22: comparable to that of hCNP-22

## hCNP: 22-amino acid CNP-22 of human origin, GLSKGCFGLK LDRIGSMSGL GC (SEQ ID NO: 7), GC-B agonist (GLSKGCFGLKLDRIGSMSGLGC; listed as Homo sapiens)
A549 cells [3]
  intracellular cGMP level: did not show such increase
Mouse melanoma B16-F10
  lung metastasis of melanoma (number of nodules): significantly suppressed

## nesiritide [hBNP]
A549 cells [3]
  intracellular cGMP level: increased the intracellular cGMP level of the A549 cells in a concentration-dependent manner
